Measurements reported in PubChem BioAssay AID504672 (Sanford-Burnham Center for Chemical Genomics, 2011).
The source made the active and inactive calls. Rule as the data show it: active = IC50 below about 71 µM; inactive = the rest.

Test system: S. cerevisiae tim10 strain, luminescence counterscreen
Assay: TIM10 strain luminescence inhibitors – S. cerevisiae, uHTS hits, counter-screen for tim23-1 inhibitor project, dose response (AID 504672);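 also: yeast grew roughly 22 hours at 25 °C before the luminescence read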

Row | Compound | IC50
1 | Cc1ccc(-c2nc(CNC(=O)c3cc(C)on3)cs2)cc1 | 19.8 µM
2 | O=C(Nc1ccc2nc(-c3ccccc3)[nH]c2c1)c1cccs1 | 3.08 µM
3 | Cc1cc2cc(CNC(=O)c3ccc(C)c([N+](=O)[O-])c3)ccc2[nH]1 | 31 µM
4 | N#Cc1c(-c2ccccc2)cc(-c2ccc(O)cc2)nc1N | 9.91 µM
5 | O=C(NCCCc1ccccc1)c1c(O)nc2sccn2c1=O | 4.09 µM
6 | O=C(Nc1nc2ccccc2s1)C1CCCN1S(=O)(=O)c1ccc(Cl)cc1 (stereo not given) | 49.3 µM
7 | O=Cc1ccccc1OCc1ccc2c(c1)OCO2 | 5.65 µM
8 | N#C/C(=C/c1ccc(N2CCOCC2)o1)c1nc2ccccc2[nH]1 | 26.6 µM
9 | O=C1NC(=S)SC1=C1CCCCCC1 | 14.1 µM
10 | Oc1ccc2ccccc2c1/C=N/c1nccs1 | 8.43 µM
11 | O=C(Nc1ccccc1)C1C(c2ccccc2)C1(Cl)Cl (stereo not given) | 20.6 µM
12 | COc1ccccc1C(=O)Nc1nnc(-c2ccc3c(c2)CCCC3)o1 | 14.7 µM
13 | O=[N+]([O-])c1ccccc1S(=O)(=O)Nc1cccc2cccnc12 | 13.9 µM
14 | O=C(c1cccnc1)C1Cc2ccccc2C1=O (stereo not given) | 27.8 µM
15 | Brc1ccc(OCc2nnnn2-c2ccccc2)cc1 | 11 µM
16 | O=C(Nc1ccc2oc(-c3ccccc3)nc2c1)c1cccs1 | < 0.2 µM
17 | CCCCc1cc(O)c(CCCC)c(O)c1 | 1.21 µM
18 | CC1=C(C)/C(=N/OC(=O)c2cccc([N+](=O)[O-])c2)C=CC1=O | 5.21 µM
19 | Cc1ccn(-c2ccc(NC(=O)c3cccs3)cc2)n1 | 5.12 µM
20 | CC1CCc2c(c3ccccc3n2C(=O)CCl)C1 (stereo not given) | 5.12 µM
21 | N#C/C(C(N)=O)=c1/ccc2c(c1)N1C3=C(CCCC3)CC3CCCCC31N=2 (stereo not given) | 8.55 µM
22 | CCOC(=O)NNc1ccc2nonc2c1[N+](=O)[O-] | 10.3 µM
23 | O=C(CSc1cccs1)Nc1ccc2ccccc2c1 | 24.4 µM
24 | O=C(N/N=C/c1coc2ccc(Cl)cc2c1=O)c1ccncc1 | 87.1 µM
25 | Cc1nc2ccccc2c(=O)n1/N=C/c1cc(Br)ccc1O | 10.8 µM

Row | Compound | IC50
26 | COc1ccc(NC(=O)C#Cc2ccccc2)cc1 | 6.8 µM
27 | O=C(Nc1ccc2oc(-c3ccccc3)nc2c1)c1cccnc1 | 10.8 µM
28 | Oc1ccc(Br)cc1/C=N/Nc1ccccn1 | 5.94 µM
29 | O=c1c2ccccc2[nH]c(=S)n1CCN1CCC(=C(c2ccc(F)cc2)c2ccc(F)cc2)CC1 | 12.7 µM
30 | CC(=O)Nc1ncnc2c1c(-c1ccc(Cl)cc1)nn2C(C)(C)C | 9.62 µM
31 | Cc1ccc2c(c1)C(=O)N1[C@H]3c4ccccc4OC[C@@H]3[C@H](c3ccccc3)[C@]1(C)C(=O)N2 | 3.54 µM
32 | O=C(Nc1ccc(-c2cn3ccccc3n2)cc1)c1ccco1 | 17.5 µM
33 | O=C(N/N=C/C=C\c1ccco1)c1cccs1 | 70 µM
34 | COc1ccc(CCN(/C=C2\Sc3ccccc3C2=O)C(C)=O)cc1OC | 26.3 µM
35 | Brc1ccc(-n2cnc(-c3ccccc3)c2)cc1 | 17.4 µM
36 | CCN(CC)S(=O)(=O)c1ccc(C(=O)OCn2nnc3ccccc3c2=O)cc1 | > 100 µM (inactive)
37 | O=C(Nc1cc(-c2ccccc2)[nH]n1)c1ccccc1 | 43.3 µM
38 | Cc1ccc(S(=O)(=O)N[C@@H](Cc2ccccc2)C(=O)CCl)cc1 | 0.64 µM
39 | C[C@@]12C(=O)Nc3ccc(Cl)cc3C(=O)N1[C@H]1c3ccccc3OC[C@@H]1[C@@H]2c1ccccc1 | 3.46 µM
40 | Cc1ccc2oc(C(Cl)(Cl)Cl)cc(=O)c2c1 | 8.7 µM
41 | O=c1/c(=C/c2cccc3ccccc23)sc2ncnn12 | 16.7 µM
42 | COc1cccc(CNn2c(-c3cccc(C)c3)nc3ccccc3c2=O)c1O | 13 µM
43 | c1ccc(Nc2nc(-c3ccccc3)nc3ccccc23)cc1 | 6.7 µM
44 | O=C(Nc1ccc(F)c(Cl)c1)c1ccccc1 | 5.55 µM
45 | Cc1ccc(Nc2nc(-c3cccnc3)nc3ccccc23)cc1 | 65.8 µM
46 | O=C1OC(c2ccccc2)=N/C1=C\C=C\c1ccco1 | > 100 µM (inactive)
47 | CCCc1nc2c(c(=O)c3ccccc3n2C)c(=O)n1C1CCCCCC1 | 23.2 µM
48 | COc1ccc(OC)c(-c2csc(NC(=O)Cc3ccc(F)cc3)n2)c1 | 27.7 µM
49 | O=C(Nc1ccc(C(=O)N2CCCc3ccccc32)cc1)c1cccs1 | 15.2 µM
50 | COc1ccc(-c2ccc(NC(=O)c3ccco3)cc2)nn1 | 10.5 µM

Row | Compound | IC50
51 | CCCCCCn1c(=O)c(-c2ccccc2)c(O)c2ccccc21 | 11.4 µM
52 | N#C/C(=C\c1ccc(OCc2ccccc2)cc1)C(N)=O | 27.9 µM
53 | O=C(Nc1nc(-c2cccs2)c(-c2ccccc2)s1)c1ccco1 | 28.6 µM
54 | Fc1ccccc1-c1cc2cc3c(cc2cn1)OCO3 | 25 µM
55 | Cc1ccc2[nH]cc(C(=O)CCl)c2c1 | 26.1 µM
56 | CSC1=N/C(=C\c2ccc(C)cc2)C(=O)S1 | 23.8 µM
57 | O=C(CCl)Nc1cccc(-c2cnc3ccccc3n2)c1 | 14.6 µM
58 | COc1ccc(C(=O)Nc2nc3ccccc3s2)c(OC)c1 | 7.13 µM
59 | O=CN(/C=C1\Sc2ccccc2C1=O)Cc1ccccc1 | 15.5 µM
60 | Cc1cc(C(=O)CCl)c(C)n1CCc1ccc(Cl)cc1 | 11 µM
61 | CCOC(=O)c1c(NC(=O)CSc2nnnn2-c2ccc(OC)cc2)sc(C)c1C | 11.6 µM
62 | Cc1csc2nc(O)c(C(=O)NCCCc3ccccc3)c(=O)n12 | 8.44 µM
63 | CN=c1scc(-c2cccs2)n1/N=C/c1ccc(O)c(O)c1O | 11 µM
64 | O=C(CC(=O)c1cc(Cl)ccc1O)c1ccccc1 | 11.1 µM
65 | COc1cc2c(cc1OC)/C(=C/c1ccc(Cl)cc1)C(=O)OC2 | 50.9 µM
66 | COC(=O)c1ccc2nc(NC(=O)C3CC3)sc2c1 | 15.3 µM
67 | Cc1ccc2nc(NC(=O)COC(=O)c3cccnc3)sc2c1 | 6.25 µM
68 | CCOC(=O)c1c(N)sc(C(=O)Nc2ccccc2)c1C | 2.25 µM
69 | Cc1ccc(C(=O)Nc2nc(C(C)(C)C)cs2)s1 | 20.9 µM
70 | CCOC(=O)c1cnc(-n2nc(C)cc2C)nc1NCCc1ccccc1 | 8.35 µM
71 | Cc1ccc(S(=O)(=O)Oc2ccccc2C=C2C(=O)N(C)C(=O)N(C)C2=O)cc1 | 4.57 µM
72 | Cc1oc2cc(O)cc(O)c2c(=O)c1-c1ccc2c(c1)OCCCO2 | 10.7 µM
73 | O=C(N/N=C/c1ccc([N+](=O)[O-])s1)c1ccncc1 | 12.7 µM
74 | O=C(/C=C/c1ccccc1Cl)Nc1ccccc1 | 44.7 µM
75 | O=C(/C=C\Nc1cccc(F)c1)c1cccs1 | 16.6 µM

Row | Compound | IC50
76 | Cc1nc2scc(C)n2c(=O)c1S(=O)(=O)Nc1ccc(OC(F)(F)F)cc1 | 49.3 µM
77 | Cc1occc1C(=O)N/N=C/C(Br)=C/c1ccccc1 | 11.5 µM
78 | O=C(N/N=C/c1ccco1)c1cc2ccccc2o1 | 22.2 µM
79 | Cc1ccn2cc(C(=O)Nc3ccc4c(c3)OCCO4)nc2c1 | > 100 µM (inactive)
80 | CC(C)(C)c1csc(NC(=O)c2ccc(Br)o2)n1 | 16.7 µM
81 | CCOC(=O)c1cccc(OC(=O)CCNC(=O)c2ccc(Cl)cc2)c1 | 26.9 µM
82 | Cc1cccc(OCCN2C(=O)C(=O)c3cc(C)ccc32)c1 | 11.6 µM
83 | O=C(Nc1nsc(-c2ccccc2)n1)c1cccs1 | 6.65 µM
84 | O=C(NCc1cccnc1)/C(=C\c1ccc(-c2ccc(Br)cc2)o1)S(=O)(=O)c1ccccc1 | 5.72 µM
85 | O=Cc1cnc2ccccc2c1-c1ccccc1 | 9.53 µM
86 | Cn1c(-c2sc3ccccc3c2Cl)n[nH]c1=S | 5.74 µM
87 | N#C/C(N)=C(/C#N)N=Cc1cccc(Cl)c1 | 14.2 µM
88 | Cc1nn(CC(=O)Nc2nc3ccccc3s2)c(C)c1[N+](=O)[O-] | 18.4 µM
89 | COc1cc(OC)cc(C(=O)Nc2ccc(Nc3ccccc3)cc2)c1 | 27.3 µM
90 | COc1ccc(-c2cc(-c3ccccc3O)[nH]n2)cc1 | 12.4 µM
91 | Cn1c(=O)c(C(=O)Nc2ncccn2)c(O)c2ccccc21 | 4.78 µM
92 | CC1CCc2c(sc3nc(C(C)(C)C)nc(N4CCN(C(=O)CCl)CC4)c23)C1 (stereo not given) | 23.3 µM
93 | Cc1cccc(N2C(=O)c3ccc(Br)cc3C2=O)n1 | 7.58 µM
94 | Cc1ccc(Nc2nc(Cl)c(C=O)s2)cc1Cl | 3.45 µM
95 | O=c1c2ccccc2nc(-c2ccc([N+](=O)[O-])cc2)n1O | 4.86 µM
96 | Cc1[nH]c2ccccc2c1C(=O)/C=C/c1ccccc1 | 12.9 µM
97 | CCCN(C(=O)c1ccc([N+](=O)[O-])c(C)c1)c1c(N)n(Cc2ccccc2)c(=O)[nH]c1=O | > 100 µM (inactive)
98 | COc1ccc(C2=NNC(c3cccs3)=Nc3ccc(OC)cc32)cc1 | 9.29 µM
99 | Cc1ccc(NC(=S)NC(=O)C2CC2)cc1Cl | 8.83 µM
100 | CCOC(=O)Nc1ccc2c(c1)Nc1ccccc1S2 | 12.7 µM

Row | Compound | IC50
101 | O=C(CSc1ccccc1)N/N=C/c1ccccc1O | 10.9 µM
102 | Cc1cnc(NC(=O)c2sc(Nc3ccccc3)nc2N)o1 | 28 µM
103 | O=c1oc(Cl)c(Cl)c2ccccc12 | 20.1 µM
104 | Oc1ccccc1C1NN=C(c2ccccc2)S1 (stereo not given) | > 100 µM (inactive)
105 | COc1cc2c3c(c1)C(C)CC(C)(C)N3C(=O)C2=O (stereo not given) | 13.8 µM
106 | CSc1nnc(C)c(/C=C/NOCc2ccc(Cl)cc2)n1 | 5.56 µM
107 | O=C(N/N=C/C(Cl)=C\c1ccccc1)c1cccs1 | 59.1 µM
108 | COc1ccc(/C=C/C(=O)Nc2ccc3c(c2)CCC3)cc1OC | 64.1 µM
109 | Cn1cccc1-c1nc2ccc(NC(=O)c3cccs3)cc2[nH]1 | 28.2 µM
110 | C=CCn1c(SCc2cc(=O)n3ccsc3n2)nc2cc(Cl)ccc2c1=O | 9.66 µM
111 | CCCCn1c(N)c(N(CCC(C)C)C(=O)c2ccc3c(c2)OCO3)c(=O)[nH]c1=O | > 100 µM (inactive)
112 | O=C(NC(=O)c1ccccc1F)OCc1ccc(Cl)cc1Cl | 15 µM
113 | Cc1ccc(-c2nc3ccccc3[nH]2)s1 | 16.4 µM
114 | CN(C)/C=C1/C=C(c2ccccc2)OC1=O | 36.8 µM
115 | O=C(N/N=C/C(Br)=C/c1ccccc1)c1cccs1 | 8.5 µM
116 | CCOC(=O)c1ccc(NC(=O)CSc2nc(=O)n3cccc(C)c3n2)cc1 | 53.6 µM
117 | CC(=O)Nc1cccc(-c2cc(-c3c(Cl)cccc3Cl)no2)c1 | 8.63 µM
118 | C/C=C/c1ccc(OCCOc2cc(C=O)ccc2OC)c(OC)c1 | 16.8 µM
119 | COc1cc2c3c(c1)C(C)=CC(C)(C)N3C(=O)C2=O | 16 µM
120 | CC(C)CCN1C(=O)c2cccc3c(N)ccc(c23)C1=O | 10.6 µM
121 | COc1cccc(C(=O)Nc2ccccc2)c1 | 24.4 µM
122 | CCOc1nc2ccccc2cc1C=O | 1.69 µM
123 | O=C(N/N=C/c1ccc(Br)s1)c1c[nH]c2ccccc12 | 13.1 µM
124 | CCOC(=O)c1c(C)oc2c1c(C(c1cccnc1)N1CCCCC1)c(O)c1ccccc12 (stereo not given) | 36.1 µM
125 | N#C/C(=C\c1ccc(Cl)cc1)C(=O)Nc1cccnc1 | 24.3 µM
